Experiment [1] addresses T1, LRRK2 Ser935 phosphorylation in SH-SY5Y cells over-expressing recombinant full length LRRK2 (Homo sapiens, UniProt Q5S007).
T1 construct: A BacMam virus expressing full length recombinant LRRK2 was purchased from Invitrogen; host or cells: SH-SY5Y human neuroblastoma cells transduced with BacMam LRRK2 virus
Description: Recombinant cellular LRRK2 AlphaScreen assay. The class given is cell-based. Particulars: human neuroblastoma SH-SY5Y cells, BacMam full length LRRK2, 60 minutes with compound, read-out: pIC50 in the recombinant cellular LRRK2 AlphaScreen assay (converted). Summed up:
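SH-SY5Y cells transduced with BacMam full-length human LRRK2 (MOI 50) for 24 h, then treated with compound (top final 10 μM) for 60 min at 37° C. Lysate pSer935 LRRK2 quantified by AlphaScreen using anti-pS935 and total-LRRK2 antibodies. Values from sigmoidal dose-response fit.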
Background: Alpha assays give light when donor and acceptor beads are brought close together.

For experiment [2], the target named is T2, full length G2019 human LRRK2 (Homo sapiens, UniProt Q5S007, R50H).
T2 construct: made in house; host or cells: HEK293 6E cells transduced with BacMam virus (virus generated in Sf9 cells)
Description: Full length G2019 human LRRK2 Inhibition Mass Spectrometry assay. The class given is biochemical. The following applies: 25 nM LRRK2 enzyme, 25 uM LRRKtide, 2 mM ATP; RapidFire mass spectrometry; read-out: pIC50 in the full length G2019 human LRRK2 Inhibition Mass Spectrometry assay (converted). The source says:
a. Full Length G2019 Human LRRK2 Inhibition Mass Spectrometry Assay
This assay for Leucine Rich Repeat Kinase 2 (LRRK2) inhibition is based on the direct measurement of the peptide ‘LRRKtide’ (LRRKtide: RLGRDKYKT*LRQIRQ and “*” refers to the site of phosphorylation.) and phosphorylated ‘LRRKtide’ using a high throughput RapidFire mass spectrometry assay. Inhibitors are compounds that reduce the conversion of LRRKtide to phospho-LRRKtide.
Human G2019 LRRK2 Plasmid Preparation
Primers used for PCR cloning: • pHTBV-F:SEQ ID No: 1 • LRRK2 wt-F1:SEQ ID No: 2 • LRRK2 wt-R1: SEQ ID No: 3 • LRRK2 wt-F2: SEQ ID No: 4 • LRRK2 wt-R2: SEQ ID No: 5 • LRRK2 wt-F3:SEQ ID No: 6 • pHTBV-R: SEQ ID No: 7 pHTBV1-N-Flag-hu LRRK2 was generated by PCR amplifying the full length LRRK2 sequence with N terminal Flag tag from pcDNA3.1(+)_Human_LRRK2 (NCBI Reference Sequence: NP_940980.3) with the primers described above, and cloned into pHTBV1mcs3 vector between BamHI and KpnI sites.
The G2019 full length Flag-LRRK2 coding sequence is SEQ ID No: 8.
The translated amino acid sequence for human G2019 full length N terminal flag tagged LRRK2 protein is SEQ ID No: 9.
Protein Expression & Purification a) Expression of Flag Tagged Full Length G2019 Human LRRK2
HEK293 6E cells were incubated in a 37° C. incubator with a humidified atmosphere of 5% CO2 on an orbital shaker rotating at 110 rpm. On the day of transduction, the cell viability was higher than 98% and the cell density was in the range of 1×10^6˜1.5×10^6 cells/ml. HEK293 6E cells were centrifuged at 1,000 rpm for 10 min, and then the cells were resuspended in fresh Freestyle 293 expression medium (Invitrogen: 12338) with 0.1% F-68(Invitrogen: 24040-032) but without antibiotics (G418) at density of 1×10^6 cells/ml. BacMam virus with Flag-hu LRRK2 (genotypically normal) gene was centrifuged at 40,000 g for 2 hours, then resuspended in fresh Freestyle 293 expression medium. The resuspended virus was added into the cells in at MOI of 10. The cells were incubated in a 37° C. incubator with a humidified atmosphere of 5% CO2 in air on an orbital shaker rotating at 110 rpm. Cultures were harvested at approximately 48 hours post-transduction by centrifugation at 4,000 rpm for 20 min and pellets were frozen for purification. […]
b) Purification of Flag Tagged Full Length G2019 Human LRRK2
The suspended cells were lysed by sonication on ice for 30 min (2 secs on/4 sec off, 20% amplitude), and centrifuged at 10,000 rpm for 30 minutes at 4° C. The supernatant was incubated with 1 mL per litre of cell culture of anti-Flag magnetic beads (Sigma-Aldrich: M8823) at 4° C. for 3 hours, then the beads were washed by 5 mL (5 column volume) binding buffer (50 mM Tris pH7.5@ 4 C, 500 mM NaCl, 0.5 mM EDTA, 0.1% TritonX-100, 10% glycerol, freshly add 2 mM DTT) for three times. The Flag tagged LRRK2 proteins were eluted by Elution buffer (50 mM Tris pH7.5@ 4 C, 500 mM NaCl, 0.5 mM EDTA, 0.1% TritonX-100, 10% glycerol, freshly add 2 mM DTT, 250 ug/ml Flag peptide (Sigma-Aldrich:F3290)) at 4° C. for 2 hours. Flag peptide was removed by Zeba Spin Desalting Columns, 7K MWCO (Thermo-Fisher: 89893) and the buffer of eluted LRRK2 proteins was exchanged into Storage Buffer (50 mM Tris pH7.5@4 C, 150 mM NaCl, 0.5 mM EDTA, 0.02% Triton X-100, 2 mM DTT and 50% Glycerol) using Amicon Ultra Centrifugal Filter Units (100 kD) (Merck: UFC910096). Fractions containing LRRK2 proteins were pooled, aliquoted and stored at −80° C. Protein concentration was determined by Bradford protein assay, and protein purity was analyzed by NuPAG Novex 4-12% Bis-Tris Protein Gels (Invitrogen: NP0322BOX).
Assay Protocol • 1) A 10 mM test compound was dissolved in 100% DMSO and serially diluted 1 in 4. 100 nL of this dilution series was then added to a 384 well, v bottom polypropylene plate, excluding columns 6 and 18. 100 nL of DMSO was added to columns 6 and 18 as controls wells. […]

Structures can show the parent of a compound that is named as a salt.

T1 sequence (Q5S007 whole entry): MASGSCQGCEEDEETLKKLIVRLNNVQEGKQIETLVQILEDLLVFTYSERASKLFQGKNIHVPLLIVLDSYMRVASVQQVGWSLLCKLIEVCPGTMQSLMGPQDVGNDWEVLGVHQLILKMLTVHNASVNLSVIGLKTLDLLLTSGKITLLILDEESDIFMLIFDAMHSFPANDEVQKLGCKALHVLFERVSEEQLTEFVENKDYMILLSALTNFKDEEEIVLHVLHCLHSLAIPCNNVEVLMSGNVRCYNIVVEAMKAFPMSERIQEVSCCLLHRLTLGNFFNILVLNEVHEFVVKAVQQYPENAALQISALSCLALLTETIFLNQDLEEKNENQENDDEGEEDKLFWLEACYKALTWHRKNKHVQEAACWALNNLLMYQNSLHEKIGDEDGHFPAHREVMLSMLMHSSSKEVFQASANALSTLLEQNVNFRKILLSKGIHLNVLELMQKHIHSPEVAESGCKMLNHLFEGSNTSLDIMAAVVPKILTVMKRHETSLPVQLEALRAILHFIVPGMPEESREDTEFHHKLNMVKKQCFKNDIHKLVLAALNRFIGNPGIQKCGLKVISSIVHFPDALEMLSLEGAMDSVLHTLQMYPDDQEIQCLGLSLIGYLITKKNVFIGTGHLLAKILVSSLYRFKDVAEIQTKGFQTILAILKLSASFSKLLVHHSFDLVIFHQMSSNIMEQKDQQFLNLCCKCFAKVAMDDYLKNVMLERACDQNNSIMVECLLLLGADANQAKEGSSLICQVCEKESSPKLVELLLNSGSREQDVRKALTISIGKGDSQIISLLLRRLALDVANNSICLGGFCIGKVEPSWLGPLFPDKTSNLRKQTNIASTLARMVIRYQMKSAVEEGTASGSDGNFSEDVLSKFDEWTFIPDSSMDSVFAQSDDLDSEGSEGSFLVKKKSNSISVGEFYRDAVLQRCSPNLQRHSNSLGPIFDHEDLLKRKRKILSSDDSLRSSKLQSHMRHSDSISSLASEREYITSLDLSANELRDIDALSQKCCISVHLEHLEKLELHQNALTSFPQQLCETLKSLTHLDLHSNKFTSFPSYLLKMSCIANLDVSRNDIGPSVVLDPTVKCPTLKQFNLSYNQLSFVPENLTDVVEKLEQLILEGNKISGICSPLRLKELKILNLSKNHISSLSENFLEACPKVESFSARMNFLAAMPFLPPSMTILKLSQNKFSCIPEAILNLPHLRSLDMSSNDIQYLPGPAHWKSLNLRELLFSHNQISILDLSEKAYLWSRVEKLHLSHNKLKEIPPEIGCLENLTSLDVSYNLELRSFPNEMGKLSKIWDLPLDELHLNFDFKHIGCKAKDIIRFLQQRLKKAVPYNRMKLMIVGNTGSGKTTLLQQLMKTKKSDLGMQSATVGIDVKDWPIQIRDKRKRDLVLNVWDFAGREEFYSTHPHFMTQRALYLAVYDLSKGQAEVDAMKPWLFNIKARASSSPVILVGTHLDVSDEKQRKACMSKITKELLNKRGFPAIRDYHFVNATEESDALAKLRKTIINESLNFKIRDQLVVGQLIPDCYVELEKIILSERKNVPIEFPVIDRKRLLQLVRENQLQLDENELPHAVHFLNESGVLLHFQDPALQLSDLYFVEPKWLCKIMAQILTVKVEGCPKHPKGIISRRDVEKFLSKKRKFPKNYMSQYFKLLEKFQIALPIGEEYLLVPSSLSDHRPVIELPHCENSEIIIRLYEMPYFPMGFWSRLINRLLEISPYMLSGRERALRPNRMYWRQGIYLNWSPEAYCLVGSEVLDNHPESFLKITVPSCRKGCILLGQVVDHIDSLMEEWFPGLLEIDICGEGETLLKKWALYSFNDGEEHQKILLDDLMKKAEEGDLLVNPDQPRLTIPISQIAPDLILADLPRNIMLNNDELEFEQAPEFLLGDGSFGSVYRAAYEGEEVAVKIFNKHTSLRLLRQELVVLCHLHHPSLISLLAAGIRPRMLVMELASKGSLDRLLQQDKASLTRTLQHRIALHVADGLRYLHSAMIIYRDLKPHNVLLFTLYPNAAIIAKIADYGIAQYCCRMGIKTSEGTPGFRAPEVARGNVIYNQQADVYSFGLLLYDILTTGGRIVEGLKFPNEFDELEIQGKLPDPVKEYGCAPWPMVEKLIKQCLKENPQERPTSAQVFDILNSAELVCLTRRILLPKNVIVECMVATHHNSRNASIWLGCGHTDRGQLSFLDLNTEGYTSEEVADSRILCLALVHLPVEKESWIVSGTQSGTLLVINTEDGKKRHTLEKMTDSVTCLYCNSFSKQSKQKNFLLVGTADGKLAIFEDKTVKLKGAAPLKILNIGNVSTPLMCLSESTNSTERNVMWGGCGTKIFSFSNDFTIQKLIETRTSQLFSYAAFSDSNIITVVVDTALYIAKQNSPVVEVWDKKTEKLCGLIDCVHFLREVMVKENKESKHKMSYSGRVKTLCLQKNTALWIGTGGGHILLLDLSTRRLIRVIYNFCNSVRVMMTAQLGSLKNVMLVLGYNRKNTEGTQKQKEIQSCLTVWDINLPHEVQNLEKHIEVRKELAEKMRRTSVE
T2 sequence (Q5S007 with tags, fused parts or gaps R50H): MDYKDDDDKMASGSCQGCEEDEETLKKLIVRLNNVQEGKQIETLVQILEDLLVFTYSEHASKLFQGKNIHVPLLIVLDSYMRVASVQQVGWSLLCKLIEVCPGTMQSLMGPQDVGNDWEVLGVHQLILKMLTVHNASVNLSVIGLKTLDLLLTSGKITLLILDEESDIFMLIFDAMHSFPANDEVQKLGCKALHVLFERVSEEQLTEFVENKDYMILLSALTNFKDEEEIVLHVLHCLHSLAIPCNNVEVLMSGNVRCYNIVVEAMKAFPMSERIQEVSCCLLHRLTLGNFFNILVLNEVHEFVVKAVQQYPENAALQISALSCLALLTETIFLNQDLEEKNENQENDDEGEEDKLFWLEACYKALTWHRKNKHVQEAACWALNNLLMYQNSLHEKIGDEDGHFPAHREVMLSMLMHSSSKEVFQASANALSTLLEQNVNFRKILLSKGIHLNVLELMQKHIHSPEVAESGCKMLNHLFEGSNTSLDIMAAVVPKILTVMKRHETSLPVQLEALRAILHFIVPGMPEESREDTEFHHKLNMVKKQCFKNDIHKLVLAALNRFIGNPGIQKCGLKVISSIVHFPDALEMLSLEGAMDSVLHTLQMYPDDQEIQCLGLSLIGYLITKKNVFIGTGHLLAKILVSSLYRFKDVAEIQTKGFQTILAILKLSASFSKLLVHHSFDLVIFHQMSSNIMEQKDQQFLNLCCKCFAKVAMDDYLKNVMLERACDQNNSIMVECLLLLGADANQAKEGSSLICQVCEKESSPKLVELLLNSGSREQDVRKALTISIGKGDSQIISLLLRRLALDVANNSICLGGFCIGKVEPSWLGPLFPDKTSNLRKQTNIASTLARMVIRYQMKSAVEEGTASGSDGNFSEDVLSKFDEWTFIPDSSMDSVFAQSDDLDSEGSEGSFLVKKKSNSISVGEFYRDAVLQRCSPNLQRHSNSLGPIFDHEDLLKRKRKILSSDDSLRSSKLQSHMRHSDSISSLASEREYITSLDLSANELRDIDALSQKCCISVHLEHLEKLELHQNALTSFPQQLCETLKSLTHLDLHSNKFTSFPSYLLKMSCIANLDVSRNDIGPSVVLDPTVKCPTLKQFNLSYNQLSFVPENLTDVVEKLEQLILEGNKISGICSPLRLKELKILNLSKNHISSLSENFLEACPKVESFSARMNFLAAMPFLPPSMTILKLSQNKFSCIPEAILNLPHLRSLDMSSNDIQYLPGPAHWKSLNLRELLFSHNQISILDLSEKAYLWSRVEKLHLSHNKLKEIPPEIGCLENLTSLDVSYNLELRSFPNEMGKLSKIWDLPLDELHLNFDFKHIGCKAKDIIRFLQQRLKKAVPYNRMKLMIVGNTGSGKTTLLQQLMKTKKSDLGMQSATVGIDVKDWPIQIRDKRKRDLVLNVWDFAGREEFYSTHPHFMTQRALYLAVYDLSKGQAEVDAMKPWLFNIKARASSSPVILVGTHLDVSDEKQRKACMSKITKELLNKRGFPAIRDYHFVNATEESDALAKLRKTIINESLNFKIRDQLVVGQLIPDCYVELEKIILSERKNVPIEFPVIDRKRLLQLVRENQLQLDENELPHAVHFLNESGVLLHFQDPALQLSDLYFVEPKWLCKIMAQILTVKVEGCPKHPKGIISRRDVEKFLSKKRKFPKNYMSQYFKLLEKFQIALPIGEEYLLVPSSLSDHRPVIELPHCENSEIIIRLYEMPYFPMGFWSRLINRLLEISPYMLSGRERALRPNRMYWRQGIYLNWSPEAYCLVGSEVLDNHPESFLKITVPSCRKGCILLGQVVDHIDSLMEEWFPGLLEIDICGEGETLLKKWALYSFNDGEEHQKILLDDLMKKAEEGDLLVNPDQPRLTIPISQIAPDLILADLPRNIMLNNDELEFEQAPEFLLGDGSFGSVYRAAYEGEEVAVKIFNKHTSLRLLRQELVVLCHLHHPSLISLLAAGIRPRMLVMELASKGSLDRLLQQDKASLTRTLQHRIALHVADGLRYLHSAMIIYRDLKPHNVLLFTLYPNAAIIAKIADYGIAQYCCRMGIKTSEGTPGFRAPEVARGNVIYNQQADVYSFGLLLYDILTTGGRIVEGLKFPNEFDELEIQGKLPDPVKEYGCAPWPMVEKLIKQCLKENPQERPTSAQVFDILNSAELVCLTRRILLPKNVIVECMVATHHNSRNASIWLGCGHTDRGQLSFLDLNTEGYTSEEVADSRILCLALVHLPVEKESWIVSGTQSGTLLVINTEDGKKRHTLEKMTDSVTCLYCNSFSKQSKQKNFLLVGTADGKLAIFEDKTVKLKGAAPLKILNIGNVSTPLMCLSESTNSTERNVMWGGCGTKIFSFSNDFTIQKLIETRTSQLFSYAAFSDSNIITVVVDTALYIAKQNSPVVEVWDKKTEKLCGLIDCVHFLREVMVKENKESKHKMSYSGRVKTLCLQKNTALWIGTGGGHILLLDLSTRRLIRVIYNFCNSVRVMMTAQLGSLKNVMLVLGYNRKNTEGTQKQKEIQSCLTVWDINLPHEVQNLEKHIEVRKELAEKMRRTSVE

`COc1nc(N2C[C@H]3C[C@@H]2CO3)cc(-n2ncc3cc(C)c(C4CCN(CCC(=O)O)CC4F)cc32)n1` (single isomer, unassigned) [Example E158]: the IC50 in experiment [1] is not above 10 nM; in experiment [2], not above 100 nM.

Turning to `COc1nc(N2C[C@@H]3C[C@H]2CO3)cc(-n2ncc3cc(C)c(C4CCN(CCC(=O)O)CC4F)cc32)n1` (single isomer, unassigned) [Example E160], the IC50 was not above 10 nM in experiment [1] and not above 100 nM in experiment [2].

Turning to `Cc1nc(N2CC3OCC2C3O)cc(-n2ncc3cc(C)c(C4CCN([C@H]5CCOC5)CC4)cc32)n1` (single isomer, unassigned) [Example E176, TFA Salt], the IC50 is not above 1000 nM in experiment [1] and not above 100 nM in experiment [2].

On to `Cc1nc(N2C[C@]3(CO)C[C@H]2CO3)cc(-n2ncc3cc(C)c(C4CCN([C@H]5CCOC5)CC4)cc32)n1` [Example E143, ((1S,4S)-5-(2-methyl-6-(5-methyl-6-(1-((S)-tetrahydrofuran-3-yl)piperidin-4-yl)-1H-indazol-1-yl)pyrimidin-4-yl)-2-oxa-5-azabicyclo[2.2.1]heptan-1-yl)methanol], for which the IC50 in experiment [1] is not above 1000 nM; in experiment [2] it was not above 100 nM.

Regarding `Cc1nc(N2C[C@H]3C[C@@H]2CO3)cc(-n2ncc3cc(C)c(C4CCN(CCC(=O)O)CC4)cc32)n1` [Example E162, 3-(4-(1-(6-((1R,4R)-2-oxa-5-azabicyclo[2.2.1]heptan-5-yl)-2-methylpyrimidin-4-yl)-5-methyl-1H-indazol-6-yl)piperidin-1-yl)propanoic Acid], the IC50 in experiment [1] was not above 1000 nM; in experiment [2] it was not above 100 nM.

In the case of `COC(=O)CCN1CCC(c2cc3c(cnn3-c3cc(N4C[C@@H]5C[C@H]4CO5)nc(C)n3)cc2C)CC1` [Example E163, Methyl 3-(4-(1-(6-((1S,4S)-2-oxa-5-azabicyclo[2.2.1]heptan-5-yl)-2-methylpyrimidin-4-yl)-5-methyl-1H-indazol-6-yl)piperidin-1-yl)propanoate], the IC50 in experiment [2] was not above 100 nM.

With `COc1nc(N2C[C@H]3C[C@@H]2CO3)cc(-n2ncc3cc(C)c(C4CCN(CCC(=O)O)CC4)cc32)n1` [Example E164, 3-(4-(1-(6-((1R,4R)-2-oxa-5-azabicyclo[2.2.1]heptan-5-yl)-2-methoxypyrimidin-4-yl)-5-methyl-1H-indazol-6-yl)piperidin-1-yl)propanoic Acid], the IC50 in experiment [1] was not above 1000 nM; in experiment [2], not above 100 nM.

Regarding `Cc1nc(N2CC3(CO)CC2CO3)cc(-n2ncc3cc(C)c(C4CCN(C5COC5)CC4)cc32)n1` (stereo not drawn) [Example E166, (5-(2-methyl-6-(5-methyl-6-(1-(oxetan-3-yl)piperidin-4-yl)-1H-indazol-1-yl)pyrimid-in-4-yl)-2-oxa-5-azabicyclo[2.2.1]heptan-1-yl)methanol], in experiment [2], the IC50 was not above 100 nM.

For `COc1nc(N2CC3(CO)CC2CO3)cc(-n2ncc3cc(C)c(C4CCN(C5COC5)CC4)cc32)n1` (stereo not drawn) [Example E167, (5-(2-methoxy-6-(5-methyl-6-(1-(oxetan-3-yl)piperidin-4-yl)-1H-indazol-1-yl)pyrim-idin-4-yl)-2-oxa-5-azabicyclo[2.2.1]heptan-1-yl)methanol], the IC50 in experiment [1] and in experiment [2] was not above 10 nM in each case.

For `Cc1nc(N2C[C@H]3C[C@@H]2CO3)cc(-n2ncc3cc(C)c(C4CCN(CCS(C)(=O)=O)CC4)cc32)n1` [Example E170, (1R,4R)-5-(2-methyl-6-(5-methyl-6-(1-(2-(methylsulfonyl)ethyl)piperidin-4-yl)-1H-indazol-1-yl)pyrimidin-4-yl)-2-oxa-5-azabicyclo[2.2.1]heptane], the IC50 in experiment [2] is not above 100 nM.

Regarding `Cc1nc(N2C[C@@]3(CO)C[C@@H]2CO3)cc(-n2ncc3cc(C)c(C4CCOCC4)cc32)n1` [Example E173, ((1R,4R)-5-(2-methyl-6-(5-methyl-6-(tetrahydro-2H-pyran-4-yl)-1H-indazol-1-yl)pyrimidin-4-yl)-2-oxa-5-azabicyclo[2.2.1]heptan-1-yl)methanol], the IC50 in experiment [2] was not above 100 nM.

For the compound `COc1nc(N2C[C@H]3C[C@@H]2CO3)cc(-n2ncc3cc(C)c(C4CCN(CCS(C)(=O)=O)CC4)cc32)n1` [Example E174, (1R,4R)-5-(2-methoxy-6-(5-methyl-6-(1-(2-(methylsulfonyl)ethyl)piperidin-4-yl)-1H-indazol-1-yl)pyrimidin-4-yl)-2-oxa-5-azabicyclo[2.2.1]heptane], the results for the IC50 in experiment [1] and in experiment [2] were not above 10 nM and not above 100 nM, respectively.

`COc1nc(N2C[C@H]3C[C@@H]2CO3)cc(-n2ncc3cc(C)c(C4C5CN([C@H]6CCOC6)CC54)cc32)n1` (stereo partly drawn) [Example E175, (1R,4R)-5-(2-methoxy-6-(5-methyl-6-(3-((S)-tetrahydrofuran-3-yl)-3-azabicyclo[3.1.0]hexan-6-yl)-1H-indazol-1-yl)pyrimidin-4-yl)-2-oxa-5-azabicyclo[2.2.1]heptane]: the IC50 in experiment [1] is not above 1000 nM; in experiment [2], not above 100 nM.

With `COc1nc(N2C[C@@]3(CO)C[C@@H]2CO3)cc(-n2ncc3cc(C)c(C4CCOCC4)cc32)n1` [Example E178, ((1R,4R)-5-(2-methoxy-6-(5-methyl-6-(tetrahydro-2H-pyran-4-yl)-1H-indazol-1-yl)pyrimidin-4-yl)-2-oxa-5-azabicyclo[2.2.1]heptan-1-yl)methanol], the IC50 in experiment [1] and in experiment [2] was not above 10 nM each time.
